Laboratory results as given in PubChem BioAssay AID1963968 (Molecular Pharmacology Branch, DTP, NCI, 2024).

Test system: 945468-187-T-J3-PDC spheroids with HUVEC/MSC, viability
Assay: Anticancer human tumor 945468-187-T-J3-PDC patient-derived rectal carcinoma cell line growth inhibition [PI3K]
Conditions: for IC50: curve of first compound; for viability, T/C: stronger effect = lower value; active means viability on the fitted dose curve at most 10% of control; inactive means the rest
Excerpt: Combinatorial screen of targeted agents with the PI3K inhibitors inavolisib, alpelisib, duvelisib, and copanlisib in multi-cell type tumor spheroids
A high-throughput screen of multi-cell type tumor spheroids was designed to identify active combinations of targeted small molecules and PI3K pathway inhibitors. Complex spheroids include a stromal component modeled by human endothelial cells (HUVEC) and fibroblasts modeled by human mesenchymal stem cells (MSCs). The concentration ranges selected for each drug and investigational agent were based upon clinically achievable concentrations if the clinical Cmax of the agent was known.
Compounds. The drugs and investigational agents: inavolisib (NSC800729), alpelisib (NSC765974), duvelisib (NSC772469), copanlisib (NSC816437), ipatasertib (NSC767898), afuresertib (NSC778305), talazoparib (NSC767125), sapanisertib (NSC764658), selumetinib (NSC741078), tovorafenib (DAY101, NSC766906), vemurafenib (NSC761431), ravoxertinib (NSC781343), sotorasib (NSC818433), MRTX1133 (NSC 836407), abemaciclib (NSC 768073), palbociclib (NSC758247), venetoclax (NSC 766270), SY5609 (NSC837396), enzalutamide (NSC755605), and darolutamide (NSC825331), were obtained from the National Cancer Institute (NCI) Developmental Therapeutics Program Chemical Repository. The FDA-approved anticancer drug set is available from the NCI Developmental Therapeutics Program. […] The stock solutions were prepared in dimethyl sulfoxide (DMSO, Sigma-Aldrich, St. Louis, MO, cat. D2650) at 800-fold the tested concentration and stored at -70 degrees C prior to their use. All drugs and investigational agents were tested over a range starting from a high concentration at or near the clinical Cmax and decreasing in half-log increments. If the clinical Cmax for an agent had not been determined, the highest concentration tested was 10 microM.
Cell Culture. All cells were maintained in an incubator at 37 degrees C and 5% CO2 with 95% humidity. The PDC lines were cultured according to standard operating procedures established by the NCI PDMR (https://pdmr.cancer.gov/sops/default.htm). All PDCs were thawed and cultured in Matrigel-coated flasks prepared with a working solution of 1X Ham's F-12 nutrient mix, without supplementation (Invitrogen, Waltham, MA, cat. 11765054), 100 U/mL penicillin-streptomycin (Invitrogen, cat. 15140122), and 2.5% Matrigel (Corning Inc., Corning, NY, cat. 354248) for the first three passages. The 354836-022-R-J1-PDC, 475296-252-R-J1-PDC, and 997726-040-R-J2-PDC lines were cultured in 6A media, which includes advanced DMEM/F-12 (Thermo Fisher Scientific, cat. 12634028), 10 mM HEPES (Thermo Fisher Scientific, cat. 15630080), 1X GlutaMAX supplement (Thermo Fisher Scientific, cat. 35050061), 0.1 mg/mL primocin (InvivoGen, San Diego, CA, cat. ant-pm-2), 10% defined fetal bovine serum, heat inactivated (HyClone Laboratories Inc., Logan, UT, cat. SH30070.03HI), 50% L-WRN conditioned media (ATCC, cat. CRL-3276), 1.25 mM N-Acetyl-L-cysteine (Sigma-Aldrich, cat. A9165), 10 mM nicotinamide (Sigma-Aldrich, cat. N0636), 1X B-27 supplement (Thermo Fisher Scientific, cat. 17504044), 1X N-2 supplement (Thermo Fisher Scientific, cat. 17502048), and 10 microM Y-27632 dihydrochloride (Tocris Bioscience, Bristol, United Kingdom, cat. 1254). The 624824-186-R-J2-PDC line was cultured in 6C/Colon 1B media, which includes all 6A media components plus 50 ng/mL human EGF recombinant protein (Thermo Fisher Scientific, cat. PHG0311). […]
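Further: spheroids exposed to agents for 7 days before viability read.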

CCCS(=O)(=O)Nc1ccc(F)c(C(=O)c2c[nH]c3ncc(-c4ccc(Cl)cc4)cc23)c1F + CC(Nc1ccc2c(c1)OCCn1cc(N3C(=O)OCC3C(F)F)nc1-2)C(N)=O
6.24 µM: IC50 (second compound 0.00316 µM)
6.37 µM: IC50 (second compound 0.316 µM)
3.27 µM: IC50 (second compound 1 µM)
7.15 µM: IC50 (second compound 0.1 µM)
6.62 µM: IC50 (second compound 0.0316 µM)
6.4 µM: IC50 (second compound 0.01 µM)
inactive: viability, T/C (second compound 0.00316 µM, first compound 0.0316 µM) 105% | viability, T/C (second compound 0.00316 µM, first compound 0.1 µM) 96.9% | viability, T/C (second compound 0.00316 µM, first compound 0.316 µM) 93% | viability, T/C (second compound 0.00316 µM, first compound 1 µM) 104% | viability, T/C (second compound 0.00316 µM, first compound 3.16 µM) 97.1% | viability, T/C (second compound 0.00316 µM, first compound 10 µM) 17.3% | viability, T/C (second compound 0.01 µM, first compound 0.0316 µM) 105% | viability, T/C (second compound 0.01 µM, first compound 0.1 µM) 88.7% | viability, T/C (second compound 0.01 µM, first compound 0.316 µM) 104% | viability, T/C (second compound 0.01 µM, first compound 1 µM) 102% | viability, T/C (second compound 0.01 µM, first compound 3.16 µM) 110% | viability, T/C (second compound 0.01 µM, first compound 10 µM) 17.3% | viability, T/C (second compound 0.0316 µM, first compound 0.0316 µM) 98.5% | viability, T/C (second compound 0.0316 µM, first compound 0.1 µM) 108% | viability, T/C (second compound 0.0316 µM, first compound 0.316 µM) 97.7% | viability, T/C (second compound 0.0316 µM, first compound 1 µM) 94.3% | viability, T/C (second compound 0.0316 µM, first compound 3.16 µM) 100% | viability, T/C (second compound 0.0316 µM, first compound 10 µM) 22.2% | viability, T/C (second compound 0.1 µM, first compound 0.0316 µM) 101% | viability, T/C (second compound 0.1 µM, first compound 0.1 µM) 102% | viability, T/C (second compound 0.1 µM, first compound 0.316 µM) 104% | viability, T/C (second compound 0.1 µM, first compound 1 µM) 99.7% | viability, T/C (second compound 0.1 µM, first compound 3.16 µM) 121% | viability, T/C (second compound 0.1 µM, first compound 10 µM) 27% | viability, T/C (second compound 0.316 µM, first compound 0.0316 µM) 98.7% | viability, T/C (second compound 0.316 µM, first compound 0.1 µM) 108% | viability, T/C (second compound 0.316 µM, first compound 0.316 µM) 98.5% | viability, T/C (second compound 0.316 µM, first compound 1 µM) 114% | viability, T/C (second compound 0.316 µM, first compound 3.16 µM) 97.6% | viability, T/C (second compound 0.316 µM, first compound 10 µM) 18.9% | viability, T/C (second compound 1 µM, first compound 0.0316 µM) 66% | viability, T/C (second compound 1 µM, first compound 0.1 µM) 66.6% | viability, T/C (second compound 1 µM, first compound 0.316 µM) 74.9% | viability, T/C (second compound 1 µM, first compound 1 µM) 69.4% | viability, T/C (second compound 1 µM, first compound 3.16 µM) 51.1% | viability, T/C (second compound 1 µM, first compound 10 µM) 13.9%
